Measurements as given in ChEMBL document CHEMBL1201862, “PubChem BioAssay data set” (2004).
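How tested: cells in 96-well plates exposed to compound for 48 hours at five concentrations. At the GI50, growth is halved.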 Activity calls are given as the source filed them. Cut-off read from the data, not from the text of the source: active = GI50 up to about 1.1 µM and inactive = higher.

Experiments:
Test in all cases: NCI tumour cell line growth inhibition, 48 h
SF-539 = system: SF-539
KM12 = system: KM12
DU-145 = system: DU-145
ACHN = system: ACHN
PC-3 = system: PC-3
Malme-3M = system: Malme-3M
MDA-N = system: MDA-N
786-0 = system: 786-0
U-251 = system: U-251
HOP-62 = system: HOP-62
SK-MEL-28 = system: SK-MEL-28
OVCAR-5 = system: OVCAR-5
UO-31 = system: UO-31
HL-60 = system: HL-60
SK-OV-3 = system: SK-OV-3
TK-10 = system: TK-10
M14 = system: M14
SK-MEL-2 = system: SK-MEL-2
OVCAR-4 = system: OVCAR-4
NCI/ADR-RES = system: NCI/ADR-RES

Measured: GI50

NC1=Nc2ncccc2C(=O)NN1
inactive: SF-539 > 10 µM | KM12 > 10 µM | DU-145 > 10 µM | ACHN > 10 µM | PC-3 > 10 µM | Malme-3M > 10 µM | MDA-N > 10 µM | 786-0 > 10 µM | U-251 > 10 µM | HOP-62 > 10 µM | SK-MEL-28 > 10 µM | OVCAR-5 > 10 µM | UO-31 > 10 µM | HL-60 > 10 µM | SK-OV-3 > 10 µM | TK-10 > 10 µM | M14 > 10 µM | SK-MEL-2 > 10 µM

CC(=O)O/C=C1/C[C@H]2[C@@H]3CCC4CC(C(C)=O)CC[C@]4(C)[C@H]3CC[C@]2(C)C1=O (stereo not given in full)
inactive: KM12 33.7 µM | DU-145 > 100 µM | ACHN > 100 µM | PC-3 > 100 µM | Malme-3M > 100 µM | MDA-N 88.1 µM | 786-0 68.2 µM | U-251 40.6 µM | HOP-62 > 100 µM | SK-MEL-28 > 100 µM | OVCAR-5 > 100 µM | UO-31 > 100 µM | HL-60 11.9 µM | OVCAR-4 > 100 µM | SK-OV-3 > 100 µM | TK-10 > 100 µM | SK-MEL-2 > 100 µM

O=C1C(Cl)=C(Cl)C(=O)N1c1ccc(F)cc1 [FLUOROIMIDE]
inactive: SF-539 23.5 µM | KM12 20.8 µM | DU-145 37.9 µM | ACHN 18.2 µM | PC-3 16.3 µM | Malme-3M 17.2 µM | MDA-N 19.5 µM | 786-0 16.4 µM | U-251 33.1 µM | HOP-62 > 67.9 µM | SK-MEL-28 19.7 µM | OVCAR-5 20.9 µM | UO-31 22 µM | HL-60 1.89 µM | OVCAR-4 16.3 µM | SK-OV-3 28.6 µM | TK-10 18.7 µM | M14 19.5 µM | SK-MEL-2 46.1 µM

COc1cc2cc(C(=O)N3CC(CCl)c4ccc([N+](=O)[O-])cc43)[nH]c2c(OC)c1OC (stereo not given)
inactive: NCI/ADR-RES > 100 µM | SF-539 > 100 µM | KM12 > 100 µM | DU-145 > 100 µM | ACHN > 100 µM | PC-3 > 100 µM | Malme-3M > 100 µM | 786-0 > 100 µM | U-251 > 100 µM | HOP-62 > 100 µM | SK-MEL-28 > 100 µM | OVCAR-5 > 100 µM | UO-31 > 100 µM | HL-60 > 100 µM | OVCAR-4 29.2 µM | TK-10 > 100 µM | M14 > 100 µM | SK-MEL-2 > 100 µM

O=C1c2cc(Br)ccc2-c2ccc3c4ccc5c6c(ccc(c7ccc1c2c73)c64)C(=O)c1cc(Br)ccc1-5
inactive: NCI/ADR-RES > 100 µM | SF-539 > 100 µM | KM12 > 100 µM | DU-145 > 100 µM | ACHN > 100 µM | PC-3 > 100 µM | Malme-3M > 100 µM | 786-0 > 100 µM | U-251 > 100 µM | HOP-62 > 100 µM | SK-MEL-28 > 100 µM | OVCAR-5 > 100 µM | UO-31 > 100 µM | HL-60 25.8 µM | SK-OV-3 > 100 µM | TK-10 > 100 µM | M14 > 100 µM | SK-MEL-2 > 100 µM

COc1ccc2c(O)c(Oc3ccc(Cl)cc3)c(=O)oc2c1
inactive: SF-539 > 100 µM | KM12 > 100 µM | DU-145 90.4 µM | ACHN 93.3 µM | PC-3 > 100 µM | Malme-3M 60.7 µM | MDA-N > 100 µM | 786-0 > 100 µM | U-251 53.5 µM | HOP-62 > 100 µM | SK-MEL-28 > 100 µM | OVCAR-5 > 100 µM | UO-31 27.5 µM | HL-60 > 100 µM | OVCAR-4 > 100 µM | TK-10 78.3 µM | M14 88.9 µM

O=C1[C@H]2ON(c3ccccc3)C(c3cccc([N+](=O)[O-])c3)[C@H]2C(=O)N1c1ccc(Cc2ccc(N3C(=O)[C@@H]4ON(c5ccccc5)C(c5cccc([N+](=O)[O-])c5)[C@@H]4C3=O)cc2)cc1 (stereo not given in full)
inactive: SF-539 > 100 µM | KM12 > 100 µM | ACHN > 100 µM | Malme-3M 75 µM | 786-0 > 100 µM | U-251 > 100 µM | HOP-62 > 100 µM | SK-MEL-28 > 100 µM | OVCAR-5 > 100 µM | UO-31 > 100 µM | HL-60 > 100 µM | OVCAR-4 > 100 µM | SK-OV-3 > 100 µM | TK-10 > 100 µM | M14 21.6 µM | SK-MEL-2 > 100 µM

O=c1c(Sc2c(O)c3ccccc3c3ccccc3c2=O)c(O)c2ccccc2c2ccccc12
inactive: SF-539 42.3 µM | KM12 93.1 µM | ACHN 25.4 µM | Malme-3M 25.2 µM | 786-0 37.2 µM | U-251 18.7 µM | HOP-62 29.5 µM | SK-MEL-28 33 µM | OVCAR-5 53.2 µM | UO-31 43.6 µM | HL-60 15.6 µM | OVCAR-4 41.8 µM | SK-OV-3 > 100 µM | TK-10 > 100 µM | M14 46.6 µM | SK-MEL-2 18.9 µM

COc1ccc(C(Cc2ccccc2)C2NC(=S)NC2=O)cc1 (stereo not given)
inactive: NCI/ADR-RES > 25 µM | SF-539 > 25 µM | KM12 > 25 µM | DU-145 > 25 µM | ACHN > 25 µM | PC-3 > 25 µM | Malme-3M > 25 µM | 786-0 > 25 µM | U-251 > 25 µM | HOP-62 > 25 µM | SK-MEL-28 > 25 µM | OVCAR-5 > 25 µM | UO-31 > 25 µM | HL-60 > 25 µM | OVCAR-4 > 25 µM | SK-OV-3 > 25 µM | TK-10 > 25 µM | M14 > 25 µM | SK-MEL-2 > 25 µM

CCCCCC#COC1CC(C)CC[C@@H]1C(C)C (stereo not given in full)
inactive: SF-539 > 100 µM | KM12 98.9 µM | ACHN 78.2 µM | Malme-3M > 100 µM | 786-0 > 100 µM | U-251 42.3 µM | HOP-62 47.9 µM | SK-MEL-28 > 100 µM | OVCAR-5 71.4 µM | UO-31 50.4 µM | HL-60 23 µM | OVCAR-4 > 100 µM | SK-OV-3 > 100 µM | TK-10 > 100 µM | M14 > 100 µM | SK-MEL-2 > 100 µM

COc1ccc(O)c2c1C(=O)CCCC2=O
inactive: SF-539 > 100 µM | KM12 > 100 µM | ACHN > 100 µM | Malme-3M > 100 µM | 786-0 > 100 µM | U-251 > 100 µM | HOP-62 > 100 µM | SK-MEL-28 > 100 µM | OVCAR-5 > 100 µM | UO-31 > 100 µM | HL-60 > 100 µM | OVCAR-4 > 100 µM | SK-OV-3 > 100 µM | TK-10 > 100 µM | M14 > 100 µM | SK-MEL-2 > 100 µM
